Experimental data reported in paper PMC9070039, “Synthesis and evaluation of antimicrobial activity, cytotoxic and pro-apoptotic effects of novel spiro-4H-pyran derivatives” (RSC Advances, 2019).
Converted amounts (≈) assume the structure as drawn.

Tests used:
S. aureus [1] = experiment: Disk diffusion antibacterial test; format: cell-based, Staphylococcus aureus; design: key to Inhibition zone (mm) S. aureus: —: inactive at concentration 50 mM; conditions: for Sensitivity of S. aureus to compound: there called agar dilution method; for Inhibition zone (mm) S. aureus: disc diffusion test, concentration 50 mM
Experimental: (§1) Antibacterial effects of spiro[indeno[2,1-c]pyridazine-9,4′-pyran]-3′,4-dicarbonitrile derivatives 5a–j were evaluated in vitro by using disk diffusion method against Gram-positive (S. aureus) and Gram negative (E. coli). The diameter of inhibition zone correlates to the sensitivity of a bacterium to an antibacterial agent. […] E. coli was resistant against all compounds tested (Table 2). Tetracycline and DMSO were used as positive control and negative control respectively. Next, the active compounds were analysed using MIC assay to determine the lowest concentration for inhibition. […] It seems due to the difference in structure of bacterial cell wall (i.e., the presence of outer membrane with lipid, lipopolysaccharide, and lipoprotein content in Gram negative bacteria), E. coli was resistant against the related synthetic compounds.
(§2) Antibacterial activity of the prepared synthetic compounds against the Gram-negative bacteria (E. coli; ATCC: 15922) and the Gram-positive bacteria (S. aureus; PTCC: 1112, International no. ATCC6538P) were examined by disk diffusion assay. Bacterial cultures were obtained from Persian Type Culture Collection, Tehran, Iran (PTCC). Isolated pure colonies from fresh grown bacteria were transferred from the plates into sterile normal saline solution and it was vortexed to form bacterial homogenous suspensions. The turbidity was then adjusted to 0.5 McFarland standard units, and the suspensions were poured over Mueller–Hinton agar (MHA) plates. Sterile filter paper disks were placed over these plates. The sterile disks were impregnated with the tested compounds. Positive control (tetracycline) and negative control ([…]) were used. To determine MIC, the concentrations of tested substance were prepared within the range from 30–5 mM. Incubate in incubator at 37 °C in 24 h for bacteria (Table 2).

E. coli = experiment: Disk diffusion antibacterial test; format: cell-based, Escherichia coli; design: key: —: inactive at concentration 50 mM; conditions: disc diffusion test, concentration 50 mM
Experimental: as §1, §2

S. aureus [2] = experiment: MIC determination; format: cell-based; conditions: Staphylococcus aureus; read-out: MICs (mM) S. aureus
Experimental: as §1, §2

A375 cells = experiment: MTT cytotoxicity assay; format: cell-based; conditions: Homo sapiens, A-375, 48 h
Experimental: (§3) At first, in order to compare anti-cancer properties, the synthesized compounds 5a–j were evaluated against A549 cells, MCF-7 cells, A375 cells, PC3 cells, LNCaP cells and HDF cells lines using the MTT colorimetric assay. The activity is expressed as 50% growth inhibitory concentration (IC50) values at 48 h. We used DMSO (1%) as negative control and Etoposide as positive control.
(§4) Human non-small-cell lung cancer A549 cells, human breast cancer MCF-7 cells, human malignant melanoma cells (A375), human prostate cancer cells (PC3 cells, LNCaP cells) and normal cells HDF (human dermal fibroblast) were received from Pasture Institute, Tehran, Iran. MCF-7 cells were grown in RPMI 1640 medium, A549 cells, A375 cells, PC3 cells, LNCaP cells and HDF cells were grown in DMEM medium. All media contain 10% fetal bovine serum (FBS), penicillin G, streptomycin 100 μg mL^−1 and 1% L-glutamine. The cells were cultured and incubated under humidified 5% CO2 atmosphere at 37 °C.
(§5) The effect of compounds treatment on the viability of cancer cell lines was measured by (3-(4,5-dimethylthiazol-2-yl)-2,5-diphenyl tetrazolium bromide or MTT) assay (MTT assay kit, Bio IDEA, CatNo: BI1017, Iran) based on the ability of live cells to cleave the tetrazolium ring to a molecule that absorb at […] as per the manufacturer's instructions.[33] Etoposide (was kindly provided by Dr A. Foroumadi, Tehran medical Science University, Iran) and dimethyl sulfoxide (or DMSO) was used as positive and negative controls, respectively.[34] Briefly, cells were plated in 96-well culture plates (5 × 10^3 cells per well). After 24 h incubation, the cells were treated with different concentrations of the compounds. After 48 h at 37 °C, the medium was removed and 100 μL of MTT reagent (1 mg mL^−1) was added to each well, and cells were further incubated at 37 °C for 4 h. The MTT solution was removed, 50 μL of DMSO was added to each well to dissolve formazan crystals, and the plates were gently shaken for 10 minutes, followed by reading with an ELISA plate reader (BiotekELx 800, USA). The 50% inhibition concentration (IC50) was defined as the concentration that inhibited cell proliferation by 50% when compared to DMSO treated cells (as negative control).

A549 cells = experiment: MTT cytotoxicity assay; format: cell-based; conditions: Homo sapiens, 48 h
Experimental: as §3, §4, §5

PC3 cells = experiment: MTT cytotoxicity assay; format: cell-based; conditions: Homo sapiens, PC-3, 48 h
Experimental: as §3, §4, §5

MCF-7 cells = experiment: MTT cytotoxicity assay; format: cell-based; conditions: Homo sapiens, MCF7, 48 h
Experimental: as §3, §4, §5

LNCaP cells = experiment: MTT cytotoxicity assay; format: cell-based; conditions: Homo sapiens, 48 h
Experimental: as §3, §4, §5

HDF cells = experiment: MTT cytotoxicity assay; format: cell-based; conditions: 48 h, normal cells (human dermal fibroblast)
Experimental: as §3, §4, §5

SMILES | Sensitivity of S. aureus to compound (S. aureus [1]) | melting point [°C] | Inhibition zone (mm) E. coli (E. coli) | MIC (S. aureus [2]) [mM] | IC50 (A375 cells) [µM] | IC50 (A549 cells) [µM] | IC50 (PC3 cells) [µM] | IC50 (MCF-7 cells) [µM] | IC50 (LNCaP cells) [µM] | IC50 (HDF cells) [µM] | Inhibition zone (mm) S. aureus (S. aureus [1])
N#CC1=C(N)Oc2[nH]c(=O)[nH]c(=O)c2C12c1ccccc1-c1c2n[nH]c(=O)c1C#N (centres unmarked) [5b, 7′-Amino-2′,3,4′-trioxo-1′,2,2′,3,3′,4′-hexahydrospiro[indeno[2,1-c]pyridazine-9,5′-pyrano[2,3-d]pyrimidine]-4,6′-dicarbonitrile] | sensitive | 322 to 324 | — | 5 (≈ 2000 µg/mL) | > 100 | > 100 | > 100 | > 100 | > 100 | > 100 | 
N#CC1=C(N)Oc2[nH]c(=S)[nH]c(=O)c2C12c1ccccc1-c1c2n[nH]c(=O)c1C#N (centres unmarked) [5c, 7′-Amino-3,4′-dioxo-2′-thioxo-1′,2,2′,3,3′,4′-hexahydrospiro[indeno[2,1-c]pyridazine-9,5′-pyrano[2,3-d]pyrimidine]-4,6′-dicarbonitrile] | sensitive | 305 to 307 | — | 50 (≈ 20800 µg/mL) | > 100 | > 100 | > 100 | > 100 | > 100 | > 100 | 
CC1(C)CC(=O)C2=C(C1)OC(N)=C(C#N)C21c2ccccc2-c2c1n[nH]c(=O)c2C#N (centres unmarked) [5d, 2-Amino-7,7-dimethyl-3′,5-dioxo-2′,3′,5,6,7,8-hexahydrospiro[chromene-4,9′-indeno[2,1-c]pyridazine]-3,4′-dicarbonitrile] |  | 315 to 318 | — |  | > 100 | > 100 | > 100 | > 100 | > 100 | > 100 | —
Cc1nn(-c2ccccc2)c2c1C1(C(C#N)=C(N)O2)c2ccccc2-c2c1n[nH]c(=O)c2C#N (centres unmarked) [5e, 6′-Amino-3′-methyl-3-oxo-1′-phenyl-2,3-dihydro-1′H-spiro[indeno[2,1-c]pyridazine-9,4′-pyrano[2,3-c]pyrazole]-4,5′-dicarbonitrile] | sensitive |  | — | 10 (≈ 4450 µg/mL) | > 100 | > 100 | > 100 | > 100 | > 100 | > 100 | 
Cc1n[nH]c2c1C1(C(C#N)=C(N)O2)c2ccccc2-c2c1n[nH]c(=O)c2C#N (centres unmarked) [5f, 6′-Amino-3′-methyl-3-oxo-2,3-dihydro-1′H-spiro[indeno[2,1-c]pyridazine-9,4′-pyrano[2,3-c]pyrazole]-4,5′-dicarbonitrile] | sensitive |  | — | 5 (≈ 1850 µg/mL) | > 100 | > 100 | > 100 | > 100 | > 100 | > 100 | 
Cc1nn(-c2cccc(Cl)c2)c2c1C1(C(C#N)=C(N)O2)c2ccccc2-c2c1n[nH]c(=O)c2C#N (centres unmarked) [5g, 6′-Amino-1′-(3-chlorophenyl)-3′-methyl-3-oxo-2,3-dihydro-1′H-spiro[indeno[2,1-c]pyridazine-9,4′-pyrano[2,3-c]pyrazole]-4,5′-dicarbonitrile] | sensitive |  | — | 5 (≈ 2400 µg/mL) | > 100 | > 100 | > 100 | > 100 | > 100 | > 100 | 
COC(=O)c1nn(-c2ccccc2)c2c1C1(C(C#N)=C(N)O2)c2ccccc2-c2c1n[nH]c(=O)c2C#N (centres unmarked) [5h, Methyl 6′-amino-4,5′-dicyano-3-oxo-1′-phenyl-2,3-dihydro-1′H-spiro[indeno[2,1-c]pyridazine-9,4′-pyrano[2,3-c]pyrazole]-3′-carboxylate] |  |  | — |  | > 100 | > 100 | > 100 | > 100 | > 100 | > 100 | —
N#CC1=C(N)Oc2c(c(=O)oc3ccccc23)C12c1ccccc1-c1c2n[nH]c(=O)c1C#N (centres unmarked) [5i, 2′-Amino-3,5′-dioxo-2,3-dihydro-5′H-spiro[indeno[2,1-c]pyridazine-9,4′-pyrano[3,2-c]chromene]-3′,4-dicarbonitrile] | sensitive | 308 to 310 | — | 5 (≈ 2170 µg/mL) | > 100 | > 100 | > 100 | > 100 | > 100 | > 100 | 
N#CC1=C(N)OC2=C(C(=O)c3ccccc32)C12c1ccccc1-c1c2n[nH]c(=O)c1C#N (centres unmarked) [5j, 2-Amino-3′,5-dioxo-2′,3′-dihydro-5H-spiro[indeno[1,2-b]pyran-4,9′-indeno[2,1-c]pyridazine]-3,4′-dicarbonitrile] |  | 298 to 300 | — |  | > 100 | > 100 | > 100 | > 100 | > 100 | > 100 | —
COc1cc([C@@H]2c3cc4c(cc3[C@@H](O[C@@H]3O[C@@H]5CO[C@@H](C)O[C@H]5[C@H](O)[C@H]3O)[C@H]3COC(=O)[C@H]23)OCO4)cc(OC)c1O [Etoposide, reference compound] |  |  |  |  | 25.31 ± 0.018 | 60 ± 0.015 | 40 ± 0.062 | 30 ± 0.011 | 90 ± 0.031 | > 100 | 
